# Data published in US20250075218A1, “HIF1A OR GLUT1 INHIBITION IN INFLAMMATORY SKIN DISEASES” (New York University, priority 2023, published 2025).
# Entries after “also recorded” stand apart in the source; their conditions may differ.
# Tests used:
# [1] = tested on: IMQ-treated murine skin; test: Lactate Secretion Assay of ex vivo murine back skin culture; format: cell-based, mouse; details: 2-DG 50 mM, 24 hours culture
# Experimental: To examine lactate levels in inflamed skin, full thickness biopsies of IMQ-treated or control skin were cultured for 24 hours, in the presence or absence of glycolysis inhibitor 2DG, and measured lactate in the culture supernatant (FIG. 13A). […] 4 mm full-thickness punch biopsies from IMQ-treated or healthy murine skin were secured with matrigel in 12-well plate and cultured for 24 hours in 400 μl of Dulbecco's Modified Eagle Medium (DMEM) with 10% Fetal Bovine Serum (FBS). For inhibitor studies, cultures were treated with 2-DG (50 mM). At the end of 24 hours, supernatant was collected, centrifuged at 1000 g to pellet debris, and stored in −80C until further use. Lactate was measured using the colorimetric L-Lactate Assay Kit (Abcam).
# [2] = tested on: HIF1A, IL17RA, and IL17RC; test: Spatial transcriptomics of pre- and post-secukinumab lesional and non-lesional skin; format: in vivo, human; details: following therapy, 12 weeks; one patient
# Excerpt: IL-17A blocking therapies are lauded for their clinical success, often achieving complete remission of skin plaques within 6 months of treatment (Ghoreschi et al., 2021). This remarkable clinical response provided a unique opportunity to examine if HIF1α levels normalize with successful therapy. Therefore, pre- and post-treatment biopsies were obtained from a secukinumab (anti-IL-17A) treated PsO patient who achieved complete clinical remission (Psoriatic Area and Severity Score (PASI) 100, or 100% psoriasis plaque clearance) (FIG. 3A and Table 1). […]
# When compared to contralateral non-lesional skin, the PsO lesion was enriched for HIF1A, IL17RA, and IL17RC (FIGS. 3B and 8H). […] As a complementary analysis, HIF1α protein expression was measured in a cohort of 10 patients treated with etanercept (anti-TNFα) that achieved response (PASI 75 or greater) at 12 weeks (Table 2) (Stinco et al., 2019). […]
# Spatial transcriptomics. […] Spot selection and image alignment: Following probe cleavage, fluorescent images were taken on a Hamamatsu NanoZoomer whole slide fluorescence scanner. […] The Space Ranger mkfastq function was used for sample demultiplexing and converting spatial barcodes and reads into FASTQ format. […]
# [3] = tested on: PsO patient; test: Clinical metadata of pre- and post-secukinumab-treated patient; format: in vivo, human
# Excerpt: IL-17A blocking therapies are lauded for their clinical success, often achieving complete remission of skin plaques within 6 months of treatment (Ghoreschi et al., 2021). This remarkable clinical response provided a unique opportunity to examine if HIF1α levels normalize with successful therapy. Therefore, pre- and post-treatment biopsies were obtained from a secukinumab (anti-IL-17A) treated PsO patient who achieved complete clinical remission (Psoriatic Area and Severity Score (PASI) 100, or 100% psoriasis plaque clearance) (FIG. 3A and Table 1). Pre- and 12-weeks post-therapy biopsies from both lesional and non-lesional skin were taken <0.5 cm apart from the same patient, ensuring that post-treatment biopsies were taken from resolved lesions and not adjacent uninvolved skin (FIG. 8A).
# Human skin samples. Following anesthetization with 2% lidocaine injection, 4 mm full-thickness punch biopsies were performed on lesional skin, and matched non-lesional skin located contralaterally. In healthy volunteers, skin biopsy samples were obtained from the trunk and/or extremities. Post-therapy biopsies from secukinumab-treated patients were taken 5 to 10 mm away from the original biopsy site within the original lesion area, discerned by hyperpigmentation, and at contralateral non-lesional skin.
# [4] = tested on: HIF1α-inhibitor downregulated gene signature; test: Transcriptional program response analyses to clinical trial data (GSVA, NCT01537432); format: in vivo, human; details: baseline and 1, 4, 12 weeks of secukinumab or placebo
# Excerpt: The dramatic transcriptional response following BAY 87-2243 treatment prompted investigation of the role of HIF1α-modulated genes on PsO disease pathogenesis. Toward this end, HIF1α-modulated genes were projected onto a longitudinal analysis of the transcriptional response from 33 patients following either placebo (9 patients) or anti-IL-17A blocking (secukinumab) therapy (24 patients) (NCT01537432) (Krueger et al., 2019).
# Transcriptional program response analyses to clinical trial data. Scoring methods: To evaluate if gene signatures derived from differential gene expression in human biopsy cultures or topical HIF1α inhibitor treatment in IMQ-treated murine model would be affected by anti-IL17 treatment, the genes down regulated by HIF1α inhibitor (HIF1α-signature) were projected into the longitudinal gene expression profiles of 31 psoriasis patients enrolled in a randomized clinical trial testing the efficacy of Secukinumab 300 mgs (n=22) versus Placebo (n=9) (Krueger et al., 2019). The overall expression/activity of the signatures was estimated using gene set variation analysis (GSVA). GSVA, a non-parametric and non-supervised method, estimated a sample-wise enrichment score for each gene set on the RCT cohorts. Such enrichment scores, representing overall gene set activity, were then modeled to evaluate the treatment effect and the association with treatment response. […]
# [5] = tested on: imiquimod (IMQ) PsO murine model; test: Imiquimod (IMQ) PsO murine model with topical inhibitor treatment; format: in vivo, mouse
# Experimental: Murine models of psoriatic inflammation. Topical imiquimod application: For imiquimod studies, seven- to eight-week-old mice in telogen (resting phase of hair cycle) were anesthetized with isoflurane prior to hair removal and imiquimod treatment on dorsal skin. 50 mg of imiquimod cream (5%, Perrigo) was applied to shaved dorsal skin, and application was repeated up to six days as previously described (van der Fits et al., 2009). Intradermal rmIL-23 injection: For recombinant murine (rm) IL-23 studies, the ear pinnae in 8-week-old mice were intradermally injected with either rmIL-23 (500 ng in 20 μl of PBS, carrier-free, PeproTech) or PBS control for five days. Animal drug treatments. […] Murine skin immunofluorescence and image analyses. […] Nuclei were stained with DAPI. […] Data were analyzed using ImageJ software.
# [6] = tested on: PsO lesional human skin; test: Ex vivo culture of human PsO lesional biopsies, bulk RNA-seq
# Excerpt: Therefore, an ex vivo “trial in a dish” system was devised to test the effects of HIF1α inhibition on PsO lesional human skin. Lesional biopsies were obtained from 5 PsO patients that were either therapy-naïve or non-responsive to biologic therapy (Table 3). […] Surgical foreskin discards were used as healthy control skin and subject to the same treatment regimens.
# Human skin culture. 4 mm full-thickness punch biopsies from lesional psoriatic skin and healthy skin (foreskin) were cut into […], secured with matrigel in 24-well plate and cultured within a maximum of 24-hours after removal from the patient. Each biopsy piece was subjected to different treatment conditions: (1) DMSO vehicle, (2) 10 μM of BAY87-2243, and (3) 500 nM of calcipotriol and 5 μM of betamethasone dipropionate (standard of care). The tissue was cultured in 24-well plates in 500 μl of Dulbecco's Modified Eagle Medium (DMEM) with 10% Fetal Bovine Serum (FBS). After 24 hours of culture, tissues were flash-frozen in liquid nitrogen and stored in −80° C. until RNA extraction. Total RNA was extracted using the RNeasy Fibrous Tissue Mini Kit (Qiagen) per manufacturer's instructions. Libraries were generated with Ribo-Zero Plus rRNA Depletion Kit (Illumina) and sequenced on Novaseq 6000 system with 100-bp paired-end reads.
# Low-input bulk-RNA sequencing of human and murine skin. For human studies, skin biopsies were flash-frozen in liquid nitrogen following culture and treatment modalities. […] Libraries were generated with Ribo-Zero Plus rRNA Depletion Kit (Illumina) and sequenced on Novaseq 6000 system with 100-bp paired-end reads. […] Reads were trimmed for adapter sequences using trimmomatic (version 0.36) in paired end mode with the minimal read length option set to 35 base pairs, trailing set to 5, and the sliding window set to 4:15. Sequencing reads were aligned to the mouse genome (mm10/GRCm38) and human genome (hg38) using the splice-aware STAR aligner (Dobin et al, 2013). […]
# [7] = tested on: uninflamed skin; details: mouse, in vivo
# Experimental: To examine if HIF1α is sufficient to promote epithelial pathology in the absence of inflammation, a HIF1α activator, FG-4592, was used (Wu et al., 2016). […] Animal drug treatments. EdU pulse: Mice were injected intraperitoneally with EdU (50 μg/g) (Thermo Scientific) three hours prior to sacrifice. PIM HCl: Pimonidazole Hydrochloride (PIM HCl, hypoxyprobe) was injected intraperitoneally into mice (20 mg/kg) two hours prior to sacrifice. BAY 87-2243: BAY 87-2243 (2 mg/ml, Selleck Chemicals) was first dissolved in DMSO and then diluted in a water-based gel. This gel was topically applied to dorsal skin daily starting two days prior to imiquimod application and continuing in parallel with imiquimod application until analysis. Sodium Oxamate: Sodium oxamate (70 mg/ml, Cayman Chemicals) was first dissolved in H2O and then diluted in a water-based gel. This gel was topically applied to dorsal skin daily starting either on the first or fourth day of imiquimod application and continuing in parallel with imiquimod application until analysis. Syrosingopine: Syrosingopine (10 mg/ml, Cayman Chemicals) was first dissolved in DMSO and then diluted in a water-based gel. […] Sections were blocked and stained with primary and secondary fluorescence-conjugated antibody. […] Pimonidazole Hydrochloride (PIM HCl) was detected by pretreating slides with a mouse-on-mouse immunodetection kit (Vector Laboratories) and then staining with biotin-anti-PIM adduct antibodies as per the manufacturer's guidelines (Hypoxyprobe). Data were analyzed using ImageJ software. Epidermal thickness was quantified by measuring K14^+ thickness with an in-house ImageJ macro. Thickness of keratin 6 (K6) and glucose transporter 1 (Glut1) layer was quantified by measuring K6^+K14^+ and Glut1^+K14^+ thickness with an ImageJ macro. The number of CD3 and EdU positive cells was quantified using ImageJ software and normalized per dermis area and length of epidermis, respectively.
# [8] = post-treatment, 12 weeks, one patient (ST-15), pre-treatment value 5
# [9] = BAY 87-2243 topical concurrent with IMQ, vs vehicle
molecule,measurement,setting,value
"O=CC[C@@H](O)[C@H](O)[C@H](O)CO [2DG, 2-Deoxy-D-glucose]","lactate in culture supernatant, IMQ-treated vs control skin",[1],diminished
same,"lactate in culture supernatant, IMQ-treated vs control skin",[1]; listed as 2-DG,lost
secukinumab,"expression of HIF1A, IL17RA, and IL17RC in resolved skin (post-treatment L)",[2],comparable to that of non-lesional skin
same,"psoriasis plaque clearance (PASI 100, complete clinical remission)",[3]; one secukinumab-treated PsO patient,100%
same,Body surface area (BSA) with psoriasis (%),"[3]; post-treatment, 12 weeks post-therapy, one patient (ST-15; AL and ANL samples), pre-treatment value 8",0%
same,Deformity,"[3]; post-treatment, 12 weeks, one patient (ST-15), pre-treatment value 0",0
same,Enthesitis,"[3]; post-treatment, 12 weeks, one patient (ST-15), pre-treatment value 1",0
same,Dactylitis,"[3]; post-treatment, 12 weeks, one patient (ST-15), pre-treatment value 4",0
same,PASI,[3]; [8],0
same,Phys GA (global),[3]; [8],1
same,Swollen joint count (SJC),"[3]; post-treatment, 12 weeks, one patient (ST-15), pre-treatment value 11",0
same,Tender joint count (TJC),"[3]; post-treatment, 12 weeks, one patient (ST-15), pre-treatment value 12",0
same,"GSVA score of gene signature downregulated by HIF1α inhibitor, treatment group vs placebo",[4],significantly distinguished
Cc1cc(-c2nc(-c3ccc(OC(F)(F)F)cc3)no2)nn1Cc1ccnc(N2CCN(C3CC3)CC2)c1 [BAY 87-2243],epidermal thickness,"[5]; BAY 87-2243 2 mg/ml gel topical daily from two days prior to and concurrent with IMQ, vs vehicle",diminished; also recorded: significantly reduced
same,dermal T cells (CD3+),"[5]; BAY 87-2243 topical concurrent with IMQ, vs control",reduction; also recorded: significantly lower numbers
same,inflammatory Keratin 6 expression (K6 thickness),[5]; [9],significantly reduced
same,proliferation (Ki67),[5]; [9],significantly reduced
same,"genes associated with glycolytic metabolism, STAT3 activation and epithelial development/differentiation","[6]; PsO lesional skin, 10 μM, 24 hours, vs vehicle",strikingly downregulated
same,number of differentially expressed genes (DEGs) compared to vehicle control,"[6]; PsO lesional skin, 24 hours in culture, FDR<0.05, 10 μM BAY87-2243, SoC 500 nM calcipotriol and 5 μM betamethasone dipropionate",2921
same,expression of lactate transporters SLC16A1 (MCT1) and SLC16A3 (MCT4),"[6]; human PsO lesional skin culture, 24 hours",significantly reduced
same,epidermal thickness,[7],not altered
